Results published in paper PMC12081876, “Identification of PTGR2 inhibitors as a new therapeutic strategy for diabetes and obesity” (EMBO Molecular Medicine, 2025).
Where “and” joins values, the source holds several entries; their conditions need not be identical. Identical values can stand only once.

Tests used:
[1] = tested on: HFHSD-fed obese C57BL6/J mice; test: Body weight / diet-induced obesity in HFHSD-fed mice; format: in vivo, mouse; conditions: for Body weight, Avg: BPRPT0245 100 mg/kg/day (Figure 5J); for Body weight, Avg / Body weight, Average / Body weight (individual mouse): in g (unit assumed); for Body weight, Average / Body weight (individual mouse): Figure 5J; for Body weight, Average: 100 mg/kg/day; for Body weight (individual mouse): BPRPT0245 group
[2] = tested on: HFHSD-fed obese C57BL6/J mice; test: Insulin tolerance test (ITT); format: in vivo, mouse; parameters: Figure 2I Average (glucose, ITT) / ITT / ITT glucose, Average / Blood glucose during insulin tolerance test (Figure 5M), Average: unit not given here; conditions: for ITT glucose, Average: BPRPT0245 100 mg/kg/day, group average (Figure 5M); for ITT glucose, individual mice: individual mouse values (Figure 5M, sheet BPRPT0245), in mg/dL (unit assumed)
Method: (§1) Glucose tolerance was evaluated by the oral (OGTT) and intraperitoneal glucose tolerance test (ipGTT) after a 6-h fast. For the OGTT, glucose water (1 mg/g) was given by oral gavage, and tail blood glucose was measured with a glucometer (ACCU-CHEK Performa, Roche) at 0, 15, 30, 45, 60, 90, and 120 min. For the ipGTT, tail blood glucose was measured at 0, 15, 30, 45, 60, 90, and 120 min after intraperitoneal injection of glucose water (1 mg/g). For the insulin tolerance test (ITT), mice were fasted for 4 h and then injected intraperitoneally with 1 U/kg of insulin (Humulin R, Eli Lilly). Tail blood glucose was measured at 0, 15, 30, 45, 60, 90, 120, and 180 min.

[3] = tested on: HFHSD-fed obese C57BL6/J mice; test: Intraperitoneal glucose tolerance test (ipGTT); format: in vivo, mouse; parameters: Figure 2H Average (glucose, ipGTT) / ipGTT / ipGTT glucose, Average / Blood glucose during glucose tolerance test (Figure 5L), Average: unit not given here; conditions: for ipGTT glucose, Average: BPRPT0245 100 mg/kg/day, group average (Figure 5L); for ipGTT glucose, individual mice: individual mouse values (Figure 5L, sheet BPRPT0245), in mg/dL (unit assumed)
Method: as §1

[4] = tested on: HFHSD-fed obese C57BL6/J mice; test: Adipocyte size and number in perigonadal fat (H&E stain); format: in vivo, mouse; conditions: 100 mg/kg/day oral, vs vehicle
Description: Tissues were fixed in 4% paraformaldehyde and then embedded in paraffin before sectioning and staining. The stained sections were scanned and analyzed using a MIRAX viewer (http://www.zeiss.de/mirax) and Image J software (http://rsbwed.nih.gov/ij/).

[5] = tested on: differentiated 3T3-L1 adipocytes; test: Insulin-stimulated glucose uptake assay by (3H)2-deoxyglucose; format: cell-based, mouse; conditions: differentiated 3T3-L1 adipocytes
[6] = 100 mg/kg/day oral, HFHSD-fed mice, vs vehicle

Cc1[nH]c2nc(C(C)N3CCN(c4ccccc4)CC3)nn2c(=O)c1Cc1ccc(F)cc1 (stereo not drawn) [BPRPT0245]
diet-induced obesity (body weight) [1, 6]: significantly prevented diet-induced obesity | Body weight, Avg ([1]; time point 0): 30.59 | Body weight, Avg ([1]; time point 1): 31.2 | Body weight, Avg ([1]; time point 2): 31.673 | Body weight, Avg ([1]; time point 3): 32.167 | Body weight, Avg ([1]; time point 4): 32.92 | Body weight, Avg ([1]; time point 5): 32.837 | Body weight, Avg ([1]; time point 6): 33.673 | Body weight, Avg ([1]; time point 7): 33.323 | Body weight, Avg ([1]; time point 8): 33.923 | Body weight, Avg ([1]; time point 9): 34.59 | Body weight, Avg ([1]; time point 10): 35.623 | Body weight, Avg ([1]; time point 11): 36.193 | Body weight, Avg ([1]; time point 12): 37.113 | Body weight, Avg ([1]; time point 13): 36.957 | Body weight, Avg ([1]; time point 14): 38.33 | Body weight, Avg ([1]; time point 15): 38.607 | Body weight, Avg ([1]; time point 16): 39.303 | Body weight, Avg ([1]; time point 17): 40.533 | Body weight, Avg ([1]; time point 18): 40.933 | Body weight, Avg ([1]; time point 19): 42.11 | Body weight, Avg ([1]; time point 20): 41.483 | Body weight, Avg ([1]; time point 21): 42.933 | Body weight, Avg ([1]; time point 22): 43.33 | Body weight, Avg ([1]; time point 23): 44.06 | Body weight, Avg ([1]; time point 24): 44.36 | Body weight, Avg ([1]; time point 25): 45.28 | Body weight, Average ([1]; week 0): 30.59 | Body weight (individual mouse) ([1]; week 0): 30 and 33.8 and 29.8 and 28.35 | Body weight, Average ([1]; week 1): 31.2 | Body weight (individual mouse) ([1]; week 1): 30.45 and 34.45 and 30.15 and 29.55 | Body weight, Average ([1]; week 2): 31.6733 | Body weight (individual mouse) ([1]; week 2): 31.05 and 34.25 and 30.6 and 30.25 | Body weight, Average ([1]; week 3): 32.1667 | Body weight (individual mouse) ([1]; week 3): 31.8 and 34.4 and 30.9 and 31.9 | Body weight, Average ([1]; week 4): 32.92 | Body weight (individual mouse) ([1]; week 4): 32.8 and 36.5 and 31.8 and 33.15 | Body weight, Average ([1]; week 5): 32.8367 | Body weight (individual mouse) ([1]; week 5): 34.2 and 36 and 31.6 | Body weight, Average ([1]; week 6): 33.6733 | Body weight (individual mouse) ([1]; week 6): 34.5 and 37.15 and 31.9 | Body weight, Average ([1]; week 7): 33.3233 | Body weight (individual mouse) ([1]; week 7): 31.45 and 36.9 and 31.75 | Body weight, Average ([1]; week 8): 33.9233 | Body weight (individual mouse) ([1]; week 8): 34.8 and 36.35 and 31.55 | Body weight, Average ([1]; week 9): 34.59 | Body weight (individual mouse) ([1]; week 9): 35.75 and 38 and 32.05 and 35.25 | Body weight, Average ([1]; week 10): 35.6233 | Body weight (individual mouse) ([1]; week 10): 38.1 and 37.65 and 32.65 and 35.65 | Body weight, Average ([1]; week 11): 36.1933 | Body weight (individual mouse) ([1]; week 11): 39.55 and 38.45 and 32.7 and 35.65 | Body weight, Average ([1]; week 12): 37.1133 | Body weight (individual mouse) ([1]; week 12): 40.35 and 39.35 and 33.6 and 37.1 | Body weight, Average ([1]; week 13): 36.9567 | Body weight (individual mouse) ([1]; week 13): 40.15 and 39.25 and 33.15 and 37.05 | Body weight, Average ([1]; week 14): 38.33 | Body weight (individual mouse) ([1]; week 14): 42.7 and 39.9 and 33.45 and 38.65 | Body weight, Average ([1]; week 15): 38.6067 | Body weight (individual mouse) ([1]; week 15): 43.6 and 39.65 and 33.2 and 38.2 | Body weight, Average ([1]; week 16): 39.3033 | Body weight (individual mouse) ([1]; week 16): 45.5 and 40.05 and 32.8 and 39.05 | Body weight, Average ([1]; week 17): 40.5333 | Body weight (individual mouse) ([1]; week 17): 47.45 and 41.6 and 33.85 and 39.8 | Body weight, Average ([1]; week 18): 40.9333 | Body weight (individual mouse) ([1]; week 18): 47.8 and 41.55 and 34.1 and 40.8 | Body weight, Average ([1]; week 19): 42.11 | Body weight (individual mouse) ([1]; week 19): 50.9 and 42.65 and 34.9 and 42.2 | Body weight, Average ([1]; week 20): 41.4833 | Body weight (individual mouse) ([1]; week 20): 50.45 and 41.95 and 34.25 and 41.75 | Body weight, Average ([1]; week 21): 42.9333 | Body weight (individual mouse) ([1]; week 21): 52.5 and 42.9 and 35.35 and 43.3 | Body weight, Average ([1]; week 22): 43.33 | Body weight (individual mouse) ([1]; week 22): 53.9 and 43.35 and 35.75 and 44.95 | Body weight, Average ([1]; week 23): 44.06 | Body weight (individual mouse) ([1]; week 23): 55.05 and 46.1 and 36.75 and 45.25 | Body weight, Average ([1]; week 24): 44.36 | Body weight (individual mouse) ([1]; week 24): 50.35 and 46.35 and 37 and 46.4 | Body weight, Average ([1]; week 25): 45.28 | Body weight (individual mouse) ([1]; week 25): 54.2 and 47.6 and 36.05 and 48.2 | ITT glucose, Average ([2]; 0 minutes): 210.867 | ITT glucose, individual mice ([2]; 0 minutes): 210 and 207 and 221 and 237 and 223 and 175 and 211 and 215 and 171 and 203 and 242 and 227 and 190 | insulin sensitivity (ITT) [2, 6]: improved | ITT glucose, Average ([2]; 15 minutes): 143.067 | ITT glucose, individual mice ([2]; 15 minutes): 156 and 120 and 180 and 189 and 164 and 136 and 112 and 129 and 113 and 144 and 148 and 135 and 145 | ITT glucose, Average ([2]; 30 minutes, 100 mg/kg/day): 94.067 and 94.0667 | ITT glucose, individual mice ([2]; 30 minutes): 106 and 97 and 111 and 100 and 102 and 82 and 74 and 96 and 105 and 107 and 84 and 69 and 88 | ITT glucose, Average ([2]; 45 minutes, 100 mg/kg/day): 78.667 and 78.6667 | ITT glucose, individual mice ([2]; 45 minutes): 95 and 77 and 90 and 86 and 83 and 78 and 69 and 70 and 74 and 85 and 61 and 71 | ITT glucose, Average ([2]; 60 minutes): 69.8 | ITT glucose, individual mice ([2]; 60 minutes): 65 and 78 and 72 and 69 and 82 and 52 and 61 and 71 and 75 and 90 and 68 and 59 | ITT glucose, Average ([2]; 90 minutes, 100 mg/kg/day): 59.667 and 59.6667 | ITT glucose, individual mice ([2]; 90 minutes): 57 and 51 and 69 and 75 and 72 and 54 and 65 and 46 and 45 and 59 and 84 and 67 and 53 | ITT glucose, Average ([2]; 120 minutes, 100 mg/kg/day): 71.467 and 71.4667 | ITT glucose, individual mice ([2]; 120 minutes): 61 and 65 and 87 and 74 and 76 and 66 and 70 and 69 and 114 and 57 and 56 | ITT glucose, Average ([2]; 180 minutes, 100 mg/kg/day): 90.933 and 90.9333 | ITT glucose, individual mice ([2]; 180 minutes): 83 and 84 and 113 and 70 and 94 and 69 and 85 and 73 and 98 and 104 and 130 and 99 and 76 | ipGTT glucose, Average ([3]; 0 minute): 153.667 | ipGTT glucose, individual mice ([3]; 0 minute): 129 and 127 and 202 and 168 and 162 and 152 and 179 and 142 and 147 and 175 and 150 and 108 and 169 | glucose tolerance (ipGTT) [3, 6]: improved glucose tolerance | ipGTT glucose, Average ([3]; 15 minute): 305 | ipGTT glucose, individual mice ([3]; 15 minute): 325 and 328 and 302 and 300 and 251 and 345 and 316 and 291 and 297 and 290 and 312 and 319 and 271 and 303 | ipGTT glucose, Average ([3]; 30 minute): 285.933 | ipGTT glucose, individual mice ([3]; 30 minute): 318 and 250 and 316 and 269 and 323 and 308 and 260 and 273 and 295 and 280 and 325 and 283 and 289 and 215 and 285 | ipGTT glucose, Average ([3]; 45 minute): 242.333 | ipGTT glucose, individual mice ([3]; 45 minute): 261 and 181 and 275 and 209 and 208 and 318 and 231 and 278 and 227 and 225 and 336 and 288 and 173 and 200 | ipGTT glucose, Average ([3]; 60 minute): 219.733 | ipGTT glucose, individual mice ([3]; 60 minute): 262 and 155 and 167 and 252 and 207 and 264 and 223 and 275 and 201 and 277 and 228 and 194 and 179 and 205 | ipGTT glucose, Average ([3]; 90 minute): 192.133 | ipGTT glucose, individual mice ([3]; 90 minute): 204 and 144 and 134 and 174 and 173 and 260 and 232 and 213 and 160 and 193 and 231 and 169 and 117 and 218 | ipGTT glucose, Average ([3]; 120 minute): 185.4 | ipGTT glucose, individual mice ([3]; 120 minute): 218 and 166 and 140 and 179 and 201 and 221 and 215 and 198 and 168 and 199 and 217 and 208 and 174 and 111 | adipocyte number [4]: not changed | adipocyte size [4]: reduced | insulin-stimulated glucose uptake [5]: augmented insulin-stimulated glucose uptake of differentiated 3T3-L1 adipocytes
